This note sets out measurements from patent publication US8236762B2, “Peptide-cytotoxic conjugates” (IPSEN Pharma S.A.S., priority 2006, dated 2012).

“Also recorded” adds a separate entry of the source. Numbered stars: 1 amine (or outer) side, 2 acyl side, 3 side chain; on linkers, the order of the positions; unused ones are H or OH. Bridge positions count the residues as written; N and C are the ends. Square brackets hold non-standard residues; d marks the D form. Peptide text beside a SMILES is read from it. * marks the point of attachment. X1 = CC[C@@]1(O*)C(=O)OCc2c1cc1n(c2=O)Cc2cc3ccccc3nc2-1; Tyr(3-I) = N[C@@H](Cc1ccc(O)c(I)c1)C(=O)O; Glutaryl = O=C(CCCC(=O)[*:2])[*:1]; Abu = CC[C@H](N)C(=O)O; AEEA = NCCOCCOCC(=O)O A value given as a limit tells only on which side of the number the result lay.

Data set [1] deals with T1, hSSTR-4 (Homo sapiens, UniProt P31391).
T1 construct: expressed in transfected cells; host or cells: CHO-K1
T1 sequence (P31391 whole entry): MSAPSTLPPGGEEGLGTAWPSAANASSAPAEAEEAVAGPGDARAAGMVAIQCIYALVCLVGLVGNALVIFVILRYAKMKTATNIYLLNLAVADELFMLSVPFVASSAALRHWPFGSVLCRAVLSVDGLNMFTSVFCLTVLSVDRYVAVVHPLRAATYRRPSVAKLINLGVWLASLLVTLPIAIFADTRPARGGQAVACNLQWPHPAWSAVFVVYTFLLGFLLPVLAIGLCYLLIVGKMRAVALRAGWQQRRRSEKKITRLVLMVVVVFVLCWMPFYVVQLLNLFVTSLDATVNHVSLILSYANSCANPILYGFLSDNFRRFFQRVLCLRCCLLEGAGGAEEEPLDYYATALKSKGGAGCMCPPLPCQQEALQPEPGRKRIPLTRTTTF
Put plainly: Somatostatin receptor radioligand binding, hSSTR-4 (CHO-K1 membranes). As to conditions: read-out: Ki hSSTR4 ± (SEM).
Description: (§3) Membranes for in vitro receptor binding assays were obtained by homogenizing (Polytron setting 6, 15 sec) CHO-K1 cells expressing human somatostatin receptor subtypes hSSTR-1, hSSTR-2, hSSTR-3, hSSTR-4 or hSSTR-5 in ice-cold 50 mM Tris-HCl. The homogenized cells were centrifuged twice at 39,000 g for 10 minutes with an intermediate resuspension in fresh buffer. The final pellets were resuspended in 10 mM Tris-HCl to prepare the cell membrane homogenate for use in the binding assay.
(§4) For the hSSTR-1, hSSTR-3, and hSSTR-4 assays, aliquots of the membrane preparations were incubated for 90 minutes at 25° C. with 0.05 nM [^125I-Tyr11]SRIF-14 in 50 mM HEPES (pH 7.4) buffer containing 0.2% BSA and 5 mM MgCl2. The final assay volume was 0.3 ml. For the hSSTR-2 and hSSTR-5 assays, [^125I]-[4-(2-hydroxyethyl)]-1-piperazinylacetyl-D-Phe-c(Cys-Tyr-D-Trp-Lys-Abu-Cys)-Thr-NH2 (0.05 nM) and [^125I]-D-Phe-c(Cys-Tyr-D-Trp-Lys-Val-Cys)-Thr-NH2 were employed as the radioligands, respectively.
(§5) The cell membrane homogenate was incubated with the radioligands for 90 minutes at 25° C. The incubations were terminated by rapid filtration through GF/C filters pre-soaked in 0.3% polyethylenimine using a Brandel® filtration manifold (Gaithersberg, Md., U.S.A.). Each tube and filter was washed three times with 5-ml aliquots of ice-cold buffer. Specific binding was defined as the total radioligand bound minus that bound in the presence of 1000 nM SRIF-14 (for hSSTR-1, hSSTR-3, hSSTR-4 or hSSTR-5), or 1000 nM DPhe-c(Cys-Tyr-D-Trp-Lys-Abu-Cys)-Thr-NH2 for hSSTR-2.

In data set [2] the target is T2, hSSTR-1 (Homo sapiens, UniProt P30872).
T2 construct: expressed in transfected cells; host or cells: CHO-K1
T2 sequence (P30872 whole entry): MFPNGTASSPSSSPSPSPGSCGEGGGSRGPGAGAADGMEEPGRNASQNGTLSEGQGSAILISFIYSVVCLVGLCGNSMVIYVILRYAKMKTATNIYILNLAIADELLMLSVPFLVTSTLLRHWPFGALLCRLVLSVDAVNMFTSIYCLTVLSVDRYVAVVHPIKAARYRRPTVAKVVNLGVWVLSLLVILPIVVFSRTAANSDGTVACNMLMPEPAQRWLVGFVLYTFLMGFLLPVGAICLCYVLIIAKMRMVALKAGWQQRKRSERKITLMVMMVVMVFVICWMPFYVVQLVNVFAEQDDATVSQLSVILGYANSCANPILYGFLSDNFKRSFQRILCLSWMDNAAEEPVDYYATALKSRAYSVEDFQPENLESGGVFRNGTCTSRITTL
Put plainly: Somatostatin receptor radioligand binding, hSSTR-1 (CHO-K1 membranes). As to conditions: read-out: Ki hSSTR1 ± (SEM).

The target of data set [3] is T3, hSSTR-2 (Homo sapiens, UniProt P30874).
T3 construct: expressed in transfected cells; host or cells: CHO-K1
T3 sequence (P30874 whole entry): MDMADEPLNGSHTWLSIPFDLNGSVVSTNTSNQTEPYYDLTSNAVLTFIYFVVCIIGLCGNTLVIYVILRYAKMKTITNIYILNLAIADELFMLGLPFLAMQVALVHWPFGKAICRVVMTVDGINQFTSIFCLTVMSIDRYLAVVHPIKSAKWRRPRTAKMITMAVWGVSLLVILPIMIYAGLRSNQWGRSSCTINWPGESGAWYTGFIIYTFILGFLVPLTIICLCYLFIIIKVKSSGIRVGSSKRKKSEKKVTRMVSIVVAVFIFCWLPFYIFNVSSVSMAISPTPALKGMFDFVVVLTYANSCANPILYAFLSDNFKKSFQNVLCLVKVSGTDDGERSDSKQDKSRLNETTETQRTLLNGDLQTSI
Nature of the data set: Somatostatin receptor radioligand binding, hSSTR-2 (CHO-K1 membranes). As to conditions: read-out: Ki hSSTR2 ± (SEM).
Description: as §3, §4, §5

The target of data set [4] is T4, hSSTR-3 (Homo sapiens, UniProt P32745).
T4 construct: expressed in transfected cells; host or cells: CHO-K1
T4 sequence (P32745 whole entry): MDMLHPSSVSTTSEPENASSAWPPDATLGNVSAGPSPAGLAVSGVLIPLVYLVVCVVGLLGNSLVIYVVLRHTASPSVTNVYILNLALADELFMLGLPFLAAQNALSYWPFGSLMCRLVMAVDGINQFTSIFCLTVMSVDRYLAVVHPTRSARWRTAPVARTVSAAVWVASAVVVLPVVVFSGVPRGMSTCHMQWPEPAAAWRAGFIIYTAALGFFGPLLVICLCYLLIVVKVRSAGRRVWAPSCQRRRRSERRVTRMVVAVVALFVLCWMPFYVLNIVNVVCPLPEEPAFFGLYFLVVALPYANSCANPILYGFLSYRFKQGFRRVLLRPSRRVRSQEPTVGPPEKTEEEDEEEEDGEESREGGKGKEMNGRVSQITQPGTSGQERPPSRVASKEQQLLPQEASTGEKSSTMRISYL
Nature of the data set: Somatostatin receptor radioligand binding, hSSTR-3 (CHO-K1 membranes). As to conditions: read-out: Ki hSSTR3 ± (SEM).
Description: as §3, §4, §5

A short description of data set [5]: Half-life determination in mouse plasma (LC-MS). It counts as in vitro ADME. Particulars: 37° C. In short, it runs like this: (§1)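 Compound samples of about 50–500 μg/ml were added to 450 μl human or mouse plasma and incubated at 37 °C. Aliquots taken from 0 to 48 h were precipitated with acetonitrile. Supernatants were analysed by LC-MS (positive-mode ESI, C8 column, acetic acid water/acetonitrile gradient).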

Data set [6] concerns the target T5, hSSTR-5 (Homo sapiens, UniProt P35346).
T5 construct: expressed in transfected cells; host or cells: CHO-K1
Nature of the data set: Somatostatin receptor radioligand binding, hSSTR-5 (CHO-K1 membranes). Particulars: read-out: Ki hSSTR5 ± (SEM).
Description: as §3, §4, §5

The nature of data set [7]: Half-life determination in human plasma (LC-MS). It counts as in vitro ADME. As to conditions: 37° C. In a few lines:
as §1

For data set [8], the system named is NCI-H69 cells. Put plainly: In vivo growth assay, NCI-H69 small cell lung carcinoma xenograft in nude mice. Particulars: female athymic nude mice, qwk×3, i.v. More on the design: species or system human.
Description: The mice were housed in microisolators on a 12-hour light cycle at 22° C. (72° F.) and 40%-60% humidity.
Mice were implanted subcutaneously in the flank with 5×10^6 cells of NCI-H69 cells along with an equal volume of Matrigel® Matrix (BD Biosciences, San Jose, Calif., U.S.A.), a solubilized basement membrane preparation extracted from EHS mouse sarcoma, a tumor rich in ECM proteins. The tumors were monitored initially twice weekly and then daily as the neoplasms reached the desired size of approximately 100 mm^3, (100 mg). When the small cell lung carcinomas attained the desired size in calculated tumor weight, the animals were pair-matched on Day 1 into various treatment groups. The estimated tumor weight was calculated using the formula:
[formula] where w=width and l=length, both measured in mm, of a small cell lung carcinoma.
Animals with tumors were then subject to either no treatment at all, treatment with a vehicle control (either saline or water), treatment with a camptothecin only control (7.5 mg/kg) or treatment with a compound according to Formula I or II as discussed above. All treatments were administered intravenously.
The subject of data set [9] is NCI-H345 cells. Put plainly: In vivo growth assay, NCI-H345 small cell lung carcinoma xenograft in nude mice. More on the design: species or system human. Particulars: female athymic nude mice, qwk×3, i.v.; 165.6, 138, 55.2 mg/kg. From the text: FIG. 3: Effects of Example 5C against small cell lung carcinoma tumor model H345 SCLC in female athymic nude mice.
(§2) In other experiments, animals were implanted with human xenografts derived from NCI-H345 cells (human small cell lung carcinoma; […]), A549 cells (non-small cell lung carcinoma), MDA-MB-231 cells (breast cancer) and K562 cells (human chronic myelogenous leukemia; […]) and then subjected to treatment with the compounds of Formula I or II and the appropriate controls as described herein.

Data set [10] concerns K562 cells. Put plainly: In vivo growth assay, K562 human chronic myelogenous leukemia xenograft in nude mice. Particulars: female athymic nude mice, qwk×3, i.v.; 165.6, 138, 55.2 mg/kg.
Source text: FIG. 2: Effects of Example 5C against tumor model human chronic myelogenous leukemia K562 in female athymic nude mice.
as §2

T5 sequence (P35346 whole entry): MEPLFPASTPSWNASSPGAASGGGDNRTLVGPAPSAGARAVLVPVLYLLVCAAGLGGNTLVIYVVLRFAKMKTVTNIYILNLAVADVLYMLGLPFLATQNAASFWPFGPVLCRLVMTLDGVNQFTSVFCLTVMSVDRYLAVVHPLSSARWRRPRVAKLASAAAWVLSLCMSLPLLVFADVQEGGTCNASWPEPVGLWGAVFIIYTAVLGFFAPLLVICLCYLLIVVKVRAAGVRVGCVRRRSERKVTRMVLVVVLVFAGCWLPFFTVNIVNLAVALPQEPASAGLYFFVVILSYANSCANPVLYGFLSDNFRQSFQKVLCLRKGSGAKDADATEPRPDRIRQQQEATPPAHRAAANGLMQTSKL

As usually defined, the Ki is a dissociation constant, usually derived from enzyme kinetics or from competition with a known ligand. A word on the half-life: it is the time needed for the level to fall by half in the phase considered. High values mean slow loss, low ones fast loss. Consider `CC[C@@H]1NC(=O)[C@H](CCCCN)NC(=O)[C@@H](Cc2c[nH]c3ccccc23)NC(=O)[C@H](Cc2ccc(O)c(I)c2)NC(=O)[C@@H](NC(=O)[C@@H](Cc2ccc(O)cc2)NC(=O)[C@@H](Cc2ccc(O)cc2)NC(=O)[C@H](CCCCN)NC(=O)COCCOCCNC(=O)COCCOCCNC(=O)COCCOCCNC(=O)COCCOCCNC(=O)CCCC(=O)NCC(=O)O[C@]2(CC)C(=O)OCc3c2cc2n(c3=O)Cc3cc4ccccc4nc3-2)CSSC[C@@H](C(=O)N[C@H](C(N)=O)[C@@H](C)O)NC1=O` [Example 3, Camptothecin-rvGly-Glut-(Doc)4-Lys-D-Tyr-D-Tyr-c(Cys-3-(I)Tyr-D-Trp-Lys-Abu-Cys)-Thr-NH2] ({X1-Gly-Glutaryl-AEEA-AEEA-AEEA-AEEA}-K[dY][dY]C[Tyr(3-I)][dW]K[Abu]CT-NH2; disulfide 4-9), for which the inhibition constant (Ki) in data set [1] is at least 1000 nM; in data set [2], at least 1000 nM; in data set [3], 0.1 nM; in data set [4] it was 94 nM; in data set [6], 3.86 nM. For the same compound, the results for the half-life in [5] and in data set [7] were 342 min and 228 min, respectively.
On to `CC[C@@]1(OC(=O)CNC(=O)CCCC(=O)NCCOCCOCC(=O)NCCOCCOCC(=O)NCCOCCOCC(=O)NCCOCCOCC(=O)N[C@@H](CCCCN)C(=O)N[C@H](Cc2ccc(O)cc2)C(=O)N[C@H](Cc2ccc(O)cc2)C(=O)N[C@H]2CSSC[C@@H](C(N)=O)NC(=O)[C@H]([C@@H](C)O)NC(=O)[C@H](CCCCN)NC(=O)[C@@H](Cc3c[nH]c4ccccc34)NC(=O)[C@H](Cc3ccccc3)NC(=O)[C@H](Cc3ccccc3)NC2=O)C(=O)OCc2c1cc1n(c2=O)Cc2cc3ccccc3nc2-1` [Example 4, Camptothecin-rvGly-Glut-(Doc)4-Lys-D-Tyr-D-Tyr-c(Cys-Phe-Phe-D-Trp-Lys-Thr-Cys)-NH2] ({X1-Gly-Glutaryl-AEEA-AEEA-AEEA-AEEA}-K[dY][dY]CFF[dW]KTC-NH2; disulfide 4-10), for which the inhibition constant (Ki) in data set [1] is at least 1000 nM; in data set [2], at least 1000 nM; in data set [3], 9.38 nM; in data set [4], at least 1000 nM; in data set [6], 481 nM. Besides, the half-life in data set [5] is 264 min; in data set [7], 192 min.
For “Camptothecin-rvD-Asp-Suc-(Doc)4-Aepa-D-Phe-c(Cys-Tyr-D-Trp-Lys-Abu-Cys)-Thr-NH2 Camptothecin-rvAsp-Suc-(Doc)4-Aepa-D-Phe-c(Cys-Tyr-D-Trp-Lys-Abu-Cys)-Thr-NH2 [Example 5B]”, in data set [8], the “tumor growth in vivo, NCI-H69 xenograft (FIG. 1)” value was “Suppression of tumor growth”.
Consider “Camptothecin-rvD-Asp-Suc-(Doc)4-Aepa-D-Phe-c(Cys-Tyr-D-Trp-Lys-Abu-Cys)-Thr-NH2 [Example 5C]”, for which the “tumor growth in vivo, H345 small cell lung carcinoma xenograft” value in data set [9] was “Suppression of tumor growth; also recorded: suppressed growth”. Besides, the “tumor growth in vivo, NCI-H69 xenograft (FIG. 1)” value in data set [8] is given as “Suppression of tumor growth”. Moreover, the “tumor growth in vivo, K562 human chronic myelogenous leukemia xenograft” value in data set [10] was “Suppression of tumor growth; also recorded: suppressed growth”.
